For four compounds, EC50 results are on record in patent US8987467B2, “Substituted pyrazole azetidines as sphingosine receptor modulators” (Allergan, Inc., priority 2013, dated 2015).

This assay addresses T1, human S1P1 receptor (Homo sapiens, UniProt P21453).
T1 construct: expressed in transfected cells; membranes used
As to the kind of experiment: GTP γ35S binding assay for S1P1 activity. The assay is classed as biochemical. The following applies: membranes of cells stably expressing the S1P1 receptor; test concentrations 0.08 to 5,000 nM; 30 min at 25° C.; read-out: S1P1 EC50 (Activity potency: S1P1 receptor from GTP γ35S). As to the method: Compounds were tested for S1P1 activity using the GTP γ^35S binding assay. These compounds may be assessed for their ability to activate or block activation of the human S1P1 receptor in cells stably expressing the S1P1 receptor.
GTP γ^35S binding was measured in the medium containing (mM) HEPES 25, pH 7.4, MgCl2 10, NaCl 100, dithiothreitol 0.5, digitonin 0.003%, 0.2 nM GTP γ^355, and 5 μg membrane protein in a volume of 150 μl. Test compounds were included in the concentration range from 0.08 to 5,000 nM unless indicated otherwise. Membranes were incubated with 100 μM 5′-adenylylimidodiphosphate for 30 min, and subsequently with 10 μM GDP for 10 min on ice. Drug solutions and membrane were mixed, and then reactions were initiated by adding GTP γ^355 and continued for 30 min at 25° C. Reaction mixtures were filtered over Whatman GF/B filters under vacuum, and washed three times with 3 mL of ice-cold buffer (HEPES 25, pH 7.4, MgCl2 10 and NaCl 100). Filters were dried and mixed with scintillant, and counted for ^35S activity using a β-counter. Agonist-induced GTP γ^355 binding was obtained by subtracting that in the absence of agonist. Binding data were analyzed using a non-linear regression method. In case of antagonist assay, the reaction mixture contained 10 nM S1P in the presence of test antagonist at concentrations ranging from 0.08 to 5000 nM.

SMILES strings stand for the structures.

A word on the EC50: it is the concentration that produces a half-maximal response.

T1 sequence (P21453 whole entry): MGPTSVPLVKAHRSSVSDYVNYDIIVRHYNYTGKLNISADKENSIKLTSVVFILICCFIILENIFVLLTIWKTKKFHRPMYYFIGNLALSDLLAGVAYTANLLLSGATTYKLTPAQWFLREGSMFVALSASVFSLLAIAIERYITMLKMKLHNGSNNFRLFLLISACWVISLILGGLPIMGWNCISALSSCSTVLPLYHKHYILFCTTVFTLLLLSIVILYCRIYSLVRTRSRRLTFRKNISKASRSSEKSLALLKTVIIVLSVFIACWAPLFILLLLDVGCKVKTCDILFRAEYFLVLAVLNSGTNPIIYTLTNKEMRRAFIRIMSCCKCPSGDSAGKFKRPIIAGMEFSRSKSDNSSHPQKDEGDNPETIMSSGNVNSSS

`CCN1N=C(c2nc(-c3ccc(CN4CC(C(=O)O)C4)cc3)no2)CC1c1ccccc1` (stereo not shown) [Compound 1, 1-{4-[5-(1-ethyl-5-phenyl-4,5-dihydro-1H-pyrazol-3-yl)-1,2,4-oxadiazol-3-yl]benzyl}azetidine-3-carboxylic acid]: the half-maximal effective concentration (EC50) came to 252 nM.
As to `CCN1N=C(c2nc(-c3cc(F)c(CN4CC(C(=O)O)C4)c(F)c3)no2)CC1c1ccccc1` (stereo not shown) [Compound 4, 1-{4-[5-(1-ethyl-5-phenyl-4,5-dihydro-1H-pyrazol-3-yl)-1,2,4-oxadiazol-3-yl]-2,6-difluorobenzyl}azetidine-3-carboxylic acid], the concentration giving a half-maximal response (EC50) stood at 51 nM.
The figure for `CCc1cc(-c2noc(C3=NN(CC)C(c4ccccc4)C3)n2)ccc1CN1CC(C(=O)O)C1` (stereo not shown) [Compound 5, 1-{2-ethyl-4-[5-(1-ethyl-5-phenyl-4,5-dihydro-1H-pyrazol-3-yl)-1,2,4-oxadiazol-3-yl]benzyl}azetidine-3-carboxylic acid] is 24 nM; for `CCCN1N=C(c2nc(-c3ccc(CN4CC(C(=O)O)C4)cc3)no2)CC1c1ccccc1` (stereo not shown) [Compound 6, 1-{4-[5-(5-phenyl-1-propyl-4,5-dihydro-1H-pyrazol-3-yl)-1,2,4-oxadiazol-3-yl]benzyl}azetidine-3-carboxylic acid] it is 75 nM.
